Where two headings read alike, the source gives them in different places.

In test [1] the target is human Farnesoid X receptor ligand-binding domain/Gal4 DNA binding domain chimera (Homo sapiens (Human), UniProt Q96RI1). Description: Cell-based assay of FXR activation (FXR-UAS-bla HEK 293T beta-lactamase reporter). Particulars: cellular FXR beta-lactamase reporter assay; for Emax: HEK-293T, extent of activation relative to GW4064, read-out: % Efficacy; for EC50: FXR-UAS-bla HEK 293T cells, 16 h, pEC50 = -log EC50. How it is done:
FXR activation was measured using a cell line and procedure obtained from Life Technologies (Cat # K1691). FXR-UAS-bla HEK 293T cells contain a human Farnesoid X receptor ligand-binding domain/Gal4 DNA binding domain chimera stably integrated into the CellSensor® UAS-bla HEK 293T cell line. The CellSensor® UAS-bla HEK 293T contains a beta-lactamase reporter gene under control of a UAS response element stably integrated into HEK 293T cells. Activation of FXR by bound ligands results in transcriptional activation of the beta-lactamase reporter gene, which is detected via assay of beta-lactamase activity.
Cells are harvested and diluted into assay medium containing phenol red-free DMEM supplemented with 2% Charcoal-stripped FBS, pyruvate, non-essential amino acids. Cells are then transferred to a 384 well assay plate. Test compounds are dissolved in DMSO and a 3-fold serial dilution series is generated, then further diluted into assay medium. Compounds in assay medium are added to cells in the 384 well plate and allowed to incubate 16 h at 37 C in the presence of 5% CO2.
A FRET-based […] is loaded into cells as its acetomethoxy ester. Intracellular esterases liberate free CCF4, a cephalosporin core linking 7-hydroxycoumarin to fluorescein. In the presence of beta-lactamase activity produced in the presence of FXR agonists, cleavage of CCF4 spatially separates the two dyes and disrupts FRET, so that exciting the coumarin at 409 nm now produces a blue fluorescence signal at 447 nm. The change in FRET signal is plotted against the test compound concentration and fit to a 3-parameter logistical equation. The concentration required to produce 50% activation is expressed as pEC50 (−log EC50), and the extent of activation is expressed relative to GW4064 as % activation.
(Reporter assays use an easily measured gene product as a stand-in for the process of interest.)

The target in test [2] is ligand binding domain of human FXR (Homo sapiens (Human), UniProt Q96RI1). The test can be described thus: FXR ligand binding assay (LanthaScreen TR-FRET, SRC2-2 peptide recruitment). Particulars: for pEC50: -log EC50, concentration required to produce 50% activation; for Emax: read-out: % Efficacy.
Sequence of ligand binding domain of human FXR (Q96RI1 262-486): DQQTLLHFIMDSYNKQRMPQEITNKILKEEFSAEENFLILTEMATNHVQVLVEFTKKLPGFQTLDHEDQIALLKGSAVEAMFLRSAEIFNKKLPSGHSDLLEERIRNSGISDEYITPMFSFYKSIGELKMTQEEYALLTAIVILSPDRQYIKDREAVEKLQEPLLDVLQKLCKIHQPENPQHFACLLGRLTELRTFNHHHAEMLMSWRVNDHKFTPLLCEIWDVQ
Setting [3] is: extent of activation relative to GW4064.

Sequence of human Farnesoid X receptor ligand-binding domain/Gal4 DNA binding domain chimera (Q96RI1 262-486, stated change not applied): as the sequence (Q96RI1 262-486) above
Sequence of human Farnesoid X receptor ligand-binding domain/Gal4 DNA binding domain chimera (P04386 1-147 partner): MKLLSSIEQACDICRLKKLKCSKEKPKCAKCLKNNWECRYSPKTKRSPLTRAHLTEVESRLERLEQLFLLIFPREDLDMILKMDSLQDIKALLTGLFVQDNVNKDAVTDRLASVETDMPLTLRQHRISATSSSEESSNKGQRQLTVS

As for `O=C1NCc2cc(N3C[C@@H]4C[C@H]3C[C@H]4OCc3c(-c4c(Cl)cccc4Cl)noc3C3CC3)ccc21` [Compound I-135, 5-[(1S,4S,5R)-5-{[5-cyclopropyl-3-(2,6-dichlorophenyl)-1,2-oxazol-4-yl]methoxy}-2-azabicyclo[2.2.1]heptan-2-yl]-2,3-dihydro-1H-isoindol-1-one], in test [1], the Emax was 102% and the EC50 – broadly, the concentration that produces a half-maximal response – is 1 nM. Also, the pEC50 (in general, −log10 of the EC50, conventionally taken in molar units) in test [2] was determined as 9.4. Moreover, the Emax in test [2] (setting [3]) was determined as 152%.

Regarding `O=C(O)c1cc(F)c2nc(N3C[C@@H]4C[C@H]3C[C@H]4OCc3c(C4CCC5(CC4)CC5)noc3C3CC3)sc2c1` [Compound I-277, 2-[(1S,4S,5R)-5-[(5-cyclopropyl-3-{spiro[2.5]octan-6-yl}-1,2-oxazol-4-yl)methoxy]-2-azabicyclo[2.2.1]heptan-2-yl]-4-fluoro-1,3-benzothiazole-6-carboxylic Acid], the Emax is 123% in test [1] and 106% in test [2] (setting [3]). The concentration for a half-maximal effect (EC50) in test [1] is 158 nM. The molecule further displayed a negative-log EC50 (pEC50) in test [2] of 8.1.

Take `NS(=O)(=O)[C@@H]1CCC[C@H]1OC(=O)c1ccc(N2C(=O)[C@@H]3C[C@H]2C[C@H]3OCc2c(-c3c(Cl)cccc3Cl)noc2C2CC2)cc1` [Compound I-345, (1R,2R)-2-sulfamoylcyclopentyl 4-[(1S,4R,5R)-5-{[5-cyclopropyl-3-(2,6-dichlorophenyl)-1,2-oxazol-4-yl]methoxy}-3-oxo-2-azabicyclo[2.2.1]heptan-2-yl]benzoate]: in test [1], the Emax was found to be 121% and the EC50 was 3.98 nM. The molecule also returned a pEC50 in test [2] of 8.6. In test [2] (setting [3]), the Emax turned out to be 203%.

As for `O=C(O)C1CCc2cc(N3C(=O)[C@@H]4C[C@H]3C[C@H]4OCc3c(-c4c(Cl)cccc4Cl)noc3C3CC3)ccc21` (stereo partly drawn) [Compound I-312, 5-[(1S,4R,5R)-5-{[5-cyclopropyl-3-(2,6-dichlorophenyl)-1,2-oxazol-4-yl]methoxy}-3-oxo-2-azabicyclo[2.2.1]heptan-2-yl]-2,3-dihydro-1H-indene-1-carboxylic Acid], in test [1], the Emax was determined as 134% and a half-maximal effect (EC50) was put at 20 nM. In test [2], this molecule came in with a pEC50 of 7. Further, the Emax in test [2] (setting [3]) was determined as 149%.

Consider `O=C(NS(=O)(=O)C1CC1)c1ccc(N2C[C@@H]3C[C@H]2C[C@H]3OCc2c(-c3c(Cl)cccc3Cl)noc2C2CC2)nc1` [Compound I-205, 6-((1S,4S,5R)-5-((5-cyclopropyl-3-(2,6-dichlorophenyl)isoxazol-4-yl)methoxy)-2-azabicyclo[2.2.1]heptan-2-yl)-N-(cyclopropylsulfonyl)nicotinamide], for which the Emax amounted to 104% in test [1] and 142% in test [2] (setting [3]). For the same molecule, the EC50 in test [1] was 10 nM. In addition, the pEC50 in test [2] worked out at 8.4.

Turning to `O=C(NS(=O)(=O)C1CC1)c1ccc(N2C(=O)[C@@H]3C[C@H]2C[C@H]3OCc2c(-c3c(Cl)cccc3Cl)noc2C2CC2)cc1F` [Compound I-331, 4-((1S,4R,5R)-5-((5-cyclopropyl-3-(2,6-chlorophenyl)isoxazol-4-yl)methoxy)-3-oxo-2-azabicyclo[2.2.1]heptan-2-yl)-N-(cyclopropylsulfonyl)-2-fluorobenzamiide], in test [1], the Emax stood at 107% and a half-maximal response (EC50) required 0.316 nM. Moreover, the negative logarithm of the EC50 (pEC50) in test [2] is recorded as 8.7. In addition, the Emax in test [2] (setting [3]) was found to be 180%.

As for `O=C(NS(=O)(=O)C1CCOC1)c1ccc(N2C[C@@H]3C[C@H]2C[C@H]3OCc2c(-c3c(Cl)cccc3Cl)noc2C2CC2)cc1` (stereo partly drawn) [Compound I-185, 4-((1S,4S,5R)-5-((5-cyclopropyl-3-(2,6-dichlorophenyl)isoxazol-4-yl)methoxy)-2-azabicyclo[2.2.1]heptan-2-yl)-N-((tetrahydrofuran-3-yl)sulfonyl)benzamide], in test [1], the Emax came to 105% and the EC50 is 0.1 nM. In test [2], the negative logarithm of the EC50 (pEC50) is 8.9. Besides, the Emax in test [2] (setting [3]) worked out at 155%.

`O=C(O)c1ccc2nc(N3C[C@@H]4C[C@H]3C[C@H]4OC(=O)c3c(-c4c(Cl)cccc4Cl)noc3C3CC3)sc2c1` [Compound I-2, 2-[(1S,4S,5R)-5-[5-cyclopropyl-3-(2,6-dichlorophenyl)-1,2-oxazole-4-carbonyloxy]-2-azabicyclo[2.2.1]heptan-2-yl]-1,3-benzothiazole-6-carboxylic acid]: in test [1], the Emax came to 120% and the concentration for a half-maximal effect (EC50) was 10 nM. For the same molecule, the pEC50 in test [2] is 7.3. For the same molecule, in test [2] (setting [3]), the Emax amounted to 138%.

As for `O=C(O)c1cc(F)c2nc(N3C[C@H]4C[C@@H]3C[C@@H]4OC(=O)c3c(-c4c(Cl)cccc4Cl)noc3C3CC3)sc2c1` [Compound I-38, 2-[(1R,4R,5S)-5-[5-cyclopropyl-3-(2,6-dichlorophenyl)-1,2-oxazole-4-carbonyloxy]-2-azabicyclo[2.2.1]heptan-2-yl]-4-fluoro-1,3-benzothiazole-6-carboxylic Acid], in test [1], the Emax was 96% and it took 200 nM to reach a half-maximal effect (EC50). In test [2], this molecule gave a negative-log EC50 (pEC50) of 6.3. Besides, in test [2] (setting [3]), the Emax stood at 56%.

As for `O=P(O)(O)CCc1ccc(N2C[C@@H]3C[C@H]2C[C@H]3OCc2c(-c3c(Cl)cccc3Cl)noc2C2CC2)cc1` [Compound I-175, (2-{4-[(1S,4S,5R)-5-{[5-cyclopropyl-3-(2,6-dichlorophenyl)-1,2-oxazol-4-yl]methoxy}-2-azabicyclo[2.2.1]heptan-2-yl]phenyl}ethyl)phosphonic Acid], in test [1], the Emax worked out at 101% and it took 631 nM to reach a half-maximal effect (EC50). Also, in test [2], the pEC50 amounted to 8.2 and the Emax amounted to 120%.

As for `O=C(O)c1cc(O[C@@H]2CCOC2)c2nc(N3C[C@@H]4C[C@H]3C[C@H]4OCc3c(-c4c(F)cccc4Cl)noc3C3CC3)sc2c1` [Compound I-268, 2-((1S,4S,5R)-5-((3-(2-chloro-6-fluorophenyl)-5-cyclopropylisoxazol-4-yl)methoxy)-2-azabicyclo[2.2.1]heptan-2-yl)-4-(((R)-tetrahydrofuran-3-yl)oxy)benzo[d]thiazole-6-carboxylic acid], in test [1], the Emax is 102% and the EC50 is 1.58 nM. This molecule also showed a pEC50 in test [2] of 8.6. For the same molecule, the Emax in test [2] (setting [3]) is 146%.

In the case of `O=C(O)c1cc([C@H]2CCOC2)c2nc(N3C[C@@H]4C[C@H]3C[C@H]4OCc3c(C4CCC5(CC4)CC5)noc3C3CC3)sc2c1` [Compound I-280, 2-((1S,4S,5R)-5-((5-cyclopropyl-3-(spiro[2.5]octan-6-yl)isoxazol-4-yl)methoxy)-2-azabicyclo[2.2.1]heptan-2-yl)-4-((R)-tetrahydrofuran-3-yl)benzo[d]thiazole-6-carboxylic acid], in test [1], the Emax turned out to be 105% and the EC50 is 25.1 nM. The same molecule yielded a pEC50 in test [2] of 7.3. Besides, the Emax in test [2] (setting [3]) came to 115%.

With `O=C(O)c1cc(C2CC3(CCOCC3)C2)c2nc(N3C(=O)[C@@H]4C[C@H]3C[C@H]4OCc3c(-c4c(Cl)cccc4Cl)noc3C3CC3)sc2c1` [Compound I-300, 2-((1S,4R,5R)-5-((5-cyclopropyl-3-(2,6-dichlorophenyl)isoxazol-4-yl)methoxy)-3-oxo-2-azabicyclo[2.2.1]heptan-2-yl)-4-(7-oxaspiro[3.5]nonan-2-yl)benzo[d]thiazole-6-carboxylic acid], in test [1], the Emax was found to be 117% and the EC50 is 100 nM. This molecule also came in with a negative logarithm of the EC50 (pEC50) in test [2] of 1. The Emax in test [2] (setting [3]) worked out at 82%.

With `CS(=O)(=O)CCNC(=O)c1ccc(N2C[C@@H]3C[C@H]2C[C@H]3OCc2c(-c3c(Cl)cccc3Cl)noc2C2CC2)cc1F` [Compound I-170, 4-[(1S,4S,5R)-5-{[5-cyclopropyl-3-(2,6-dichlorophenyl)-1,2-oxazol-4-yl]methoxy}-2-azabicyclo[2.2.1]heptan-2-yl]-2-fluoro-N-(2-methanesulfonylethyl)benzamide], in test [1], the Emax came out at 103% and the concentration for a half-maximal effect (EC50) is 1.26 nM. This molecule also registered a pEC50 in test [2] of 9.4. For the same molecule, the Emax in test [2] (setting [3]) is 142%.

`O=C(NS(=O)(=O)CCO)c1ccc(N2C[C@@H]3C[C@H]2C[C@H]3OCc2c(-c3c(Cl)cccc3Cl)noc2C2CC2)cc1` [Compound I-210, 4-[(1S,4S,5R)-5-{[5-cyclopropyl-3-(2,6-dichlorophenyl)-1,2-oxazol-4-yl]methoxy}-2-azabicyclo[2.2.1]heptan-2-yl]-N-(2-hydroxyethanesulfonyl)benzamide] had an EC50 in test [1] of less than 31.6 nM. The molecule further had a negative-log EC50 (pEC50) in test [2] of 8.6. In addition, the Emax in test [2] (setting [3]) worked out at 148%.

For the molecule `O=C(O)c1cc(OCC(F)(F)F)c2nc(N3C[C@@H]4C[C@H]3C[C@H]4OCc3c(-c4c(Cl)cccc4Cl)noc3C3CC3)sc2c1` [Compound I-17, 2-[(1S,4S,5R)-5-{[5-cyclopropyl-3-(2,6-dichlorophenyl)-1,2-oxazol-4-yl]methoxy}-2-azabicyclo[2.2.1]heptan-2-yl]-4-(2,2,2-trifluoroethoxy)-1,3-benzothiazole-6-carboxylic acid], in test [1], the Emax is 102% and the EC50 was 0.1 nM. The molecule also showed a negative logarithm of the EC50 (pEC50) in test [2] of 8.2. The Emax in test [2] (setting [3]) was determined as 162%.

For the origin of these results see patent US10793568B2, “Hormone receptor modulators for treating metabolic conditions and disorders” (ARDELYX, INC., priority 2016, dated 2020).
